The values below are quoted from earlier work in patent US20050112339A1, “Antimicrobial protection for plastic structures” (priority 2003, published 2005).

For this data set the following is noted: in water.
As for `On1ccccc1=S.On1ccccc1=S.[Cu]` [copper pyrithione], the water solubility is listed as 0.1 milligrams per liter. For the compound zinc pyrithione, the water solubility is 6 milligrams per liter.

Turning to `[Na+].[O-][n+]1ccccc1[S-]` [sodium pyrithione], the water solubility is given as 450 grams per liter.
